Patent publication US9795675B2, “Light-activatable polymeric nanoparticles” (CNC—CENTRO DE NEUROCIÊNCIAS E BIOLOGIA CELULAR, priority 2013, dated 2017)

Legend:
patients = details: cited from earlier work
K562, NB4 and U937 cells = test: Retinoic acid uptake assay ([3H]RA, scintillation counting); type: cell-based, human
Procedure: Experiments were initiated by the addition of medium containing [^3H]RA (1 μM and 10 μM) and [^3H]RA-NPs (1 μg/mL and 10 μg/mL) to cultures (60,000 cells/condition, 24-well plate, 1 mL) of K562, NB4 and U937 cells. After experimental incubations with medium containing [^3H]RA and [^3H]RA-NPs for 4, 24 and 72 hours, cells were collected to eppendorfs, washed with PBS by centrifugation (1500 rpm, 5 min, 2 times) to remove non-internalized [^3H]RA and then resuspend in 100 μL of lysis buffer (see above) and kept on ice until scintillation counting procedure.
The titrium content of the samples was assayed by adding 100 μL aliquot of the samples to 1 mL liquid scintillation fluid (Packard Ultima Gold) and counted in a TriCarb 2900 TR Scintillation analyzer (Perkin Elmer). All conditions were performed in triplicate.

U937 cells [1] = test: Uptake of FITC-labeled transferrin (validation of dynasor); type: cell-based, human; details: dynasor 80 μM, 30 min pre-incubation
Procedure: (§1) Uptake mechanisms analysis. For determining the uptake mechanism(s), we first perform NP uptake assays in the presence of endocytosis inhibitors. U937 cells were cultured on 24 well plates (1×10^5 cells/well) and inhibited by one of the following chemicals during 30 min before adding a suspension of TRITC-labelled NPs (5 μg/mL): dynasor (80 μM), cytochalasin D (10 μM), nocodazole (50 uM), filipin III (100 μM) and polyinosinic acid (100 μg/mL). The inhibitor concentrations were based in values reported in literature and further validated by us to have no cytotoxic effect over the period of the assay (6 h), as confirmed by ATP assay. The incubation of the cells with NPs for different times was performed in the presence of the inhibitor. As controls, we used cells without NPs and cells incubated with NPs without inhibitor. At the end of each time point, cells were centrifuged at 1300 rpm, 2° C. for 5 min with PBS, washed one time with cold trypan blue solution (200 μL; 600 μg/mL), re-washed 3 times with cold PBS and then resuspended in PBS containing 2.5% FBS (500 μL) for FACS analysis. A total of 10,000 events were obtained per measurement. To validate the inhibitory activity of dynasor we performed uptake studies of FITC-labeled transferrin, known to selectively enter cells via clatherin-mediated endocytosis. […] Cells were then evaluated as before.

U937 cells [2] = test: NP uptake in the presence of endocytosis inhibitors (FACS); type: cell-based, human; details: dynasor 80 μM; TRITC-labelled NPs 5 μg/mL
Procedure: as §1

CC1=C(/C=C/C(C)=C/C=C/C(C)=C/C(=O)O)C(C)(C)CCC1 [RA, retinoic acid]
patients receiving RA who develop serious complications including the differentiation syndrome (patients; human, in vivo): approximately 25%
patients in whom the dose of RA leads to hyperleukocytosis and respiratory distress syndrome (patients; up to): 20-30%
time of peak RA uptake (K562, NB4 and U937 cells): 24 h

O=C(N/N=C/c1ccc(O)c(O)c1)c1cc2ccccc2cc1O [Dynasore]
internalisation of FITC-labeled transferrin (U937 cells [1]): inhibits the internalisation of transferrin
reduction of the uptake of NPs compared to control cells (U937 cells [2]): 90%

CC1=C(/C=C/C(C)=C/C=C/C(C)=C/C(=O)O)C(C)(C)CCC1 [[^3H]RA]
uptake yield of [^3H]RA (K562, NB4 and U937 cells; [^3H]RA 1 and 10 uM or [^3H]RA-NPs 1 and 10 ug/mL, for 4 hours, measured after 24 and 72 hours): below 2%
